We go through 41 compounds from PubChem BioAssay AID1996.

Values after ≈ are worked out from the molar mass of the structure shown.

The conditions of the data set: buffer; pH 7.4; 200.0 µM.
For orientation: solubility (kinetic) means solubility judged after dilution from a stock solution rather than from solid. As to `COc1ccc(S(=O)(=O)NCC2CCC(C(=O)O)CC2)cc1` (stereo unspecified), the solubility (kinetic) was > 49.1 µg/mL.

The compound `Cc1nc(N2CCOCC2)nc(Oc2ccccc2)c1[N+](=O)[O-]` yielded a solubility (kinetic) of 5.8 µg/mL (≈ 18.3 µM).

Regarding `O=C(NCc1ccco1)c1ccccc1O`, the solubility (kinetic) came to 22.9 µg/mL (≈ 105 µM).

As to `COc1ccc(C(=O)Nc2ccc(S(=O)(=O)N3CCOCC3)cc2)cc1`, the solubility (kinetic) was 2.9 µg/mL (≈ 7.7 µM).

For the compound `O.S=c1nc[nH]c2nc[nH]c12`, the kinetic solubility was > 25.5 µg/mL.

With `Cc1cccc(C)c1NC(=O)CN(C)C(=O)C1CCCCC1`, the solubility (kinetic) was > 45.4 µg/mL.

In turn, `O=C(COC(=O)C1CCCCC1)Nc1cc([N+](=O)[O-])ccc1F` had a kinetic solubility of 36.4 µg/mL (≈ 112 µM).

Consider `O=C(Nc1ccccc1)N(c1ccccc1)C1C=CS(=O)(=O)C1` (stereo unspecified), for which the solubility (kinetic) is > 49.3 µg/mL.

`CCOC(=O)c1cc(C#N)c(SCC(=O)O)[nH]c1=O` yielded a kinetic solubility of 38.8 µg/mL (≈ 137 µM).

For `Cc1ccc(CNc2ccc(N3CCOCC3)cc2)cc1`, the solubility (kinetic) is > 42.4 µg/mL.

`Cc1ccccc1C(=O)NC(=S)NC1CC1` displayed a solubility (kinetic) of 16.3 µg/mL (≈ 69.6 µM).

For `O=C(CSc1nnc(Nc2ccccc2)s1)NC1CCS(=O)(=O)C1` (stereo unspecified), the solubility (kinetic) is > 57.7 µg/mL.

The compound `O=C1C2C3C=CC(CC3)C2C(=O)N1c1ccccc1[N+](=O)[O-]` (stereo unspecified) had a solubility (kinetic) of 14.5 µg/mL (≈ 48.6 µM).

Turning to `Cc1ccc(N2CC(C(=O)NCCN3CCOCC3)CC2=O)cc1` (stereo unspecified), the kinetic solubility is > 49.7 µg/mL.

Take `COC(=O)C(Cc1ccc(O)cc1)NC(=O)c1ccc2c(c1)OCCO2` (stereo unspecified): the solubility (kinetic) was > 53.6 µg/mL.

In the case of `O=C(O)c1ccc(NCc2cccnc2)c([N+](=O)[O-])c1`, the solubility (kinetic) was > 41 µg/mL.

Turning to `COC(=O)c1cn(Cc2cc(OC)ccc2OC)cc(F)c1=O`, the kinetic solubility was > 48.2 µg/mL.

With `CC(=O)N1c2ccccc2-c2nc3ccccc3n2C1C` (stereo unspecified), the solubility (kinetic) was > 41.6 µg/mL.

Consider `O=C(Nc1ccc(Cl)cc1)C1(S(=O)(=O)c2ccccc2)CC1`, for which the solubility (kinetic) was 7.7 µg/mL (≈ 22.9 µM).

For the compound `COc1ccc(CC(=O)OCC(=O)NCc2ccc3c(c2)OCO3)cc1OC`, the kinetic solubility was > 58.1 µg/mL.

In turn, `O=S(=O)(c1ccccc1)N1CN(c2ccc(F)cc2F)c2nc3ccccc3nc21` came in with a solubility (kinetic) of 3.8 µg/mL (≈ 8.95 µM).

For `Cc1cc(C)c2c(CC(=O)N3CCCC3)coc2c1`, the kinetic solubility is > 38.6 µg/mL.

`O=C(CN1CCN(c2ccccn2)CC1)Nc1ccc(F)c(F)c1`: the kinetic solubility is > 49.9 µg/mL.

Compound `COc1ccc(NC(=O)Nc2ccccc2SC)cc1OC` showed a kinetic solubility of 0.6 µg/mL (≈ 1.88 µM).

The compound `O=C(COC(=O)C1=COCCO1)Nc1ccc(Br)cc1Br` came in with a kinetic solubility of 6.6 µg/mL (≈ 15.7 µM).

For `C/C(=N/NC(=O)CN1CCN(Cc2ccccc2Cl)CC1)c1cccnc1`, the solubility (kinetic) was > 57.9 µg/mL.

`COc1ccc(Nc2nccc(-c3cccc(N)c3)n2)cc1` yielded a solubility (kinetic) of 22.5 µg/mL (≈ 77 µM).

`Cc1ccc2nc3cc([N+](=O)[O-])cc([N+](=O)[O-])c3cc2c1`: the kinetic solubility was found to be 0.8 µg/mL (≈ 2.82 µM).

With `COC(=O)CCN(C(=O)c1ccc([N+](=O)[O-])cc1)c1ccccn1`, the solubility (kinetic) was > 49.4 µg/mL.

`CN(Cc1nc(-c2cnccn2)no1)Cc1cccc2ccccc12` registered a kinetic solubility of 48.9 µg/mL (≈ 148 µM).

`O=C(COc1cccnc1[N+](=O)[O-])Nc1c(Cl)cccc1Cl`: the solubility (kinetic) worked out at 23.2 µg/mL (≈ 67.8 µM).

As to `C=CCNC(=O)C1CCC(C(=O)NCC=C)CC1` (stereo unspecified), the solubility (kinetic) is > 37.6 µg/mL.

`O=C(NC1CCCc2ccccc21)c1cc(F)cc(F)c1` (stereo unspecified) registered a kinetic solubility of 2.6 µg/mL (≈ 9.05 µM).

The compound `Cc1ccc(S(=O)(=O)Nc2ccc(Cl)cn2)cc1` returned a kinetic solubility of 28.3 µg/mL (≈ 100 µM).

On to `C=CCNC(=S)N1CCC(Cc2ccccc2)CC1`, for which the solubility (kinetic) was found to be 31.5 µg/mL (≈ 115 µM). This solubility kinetic and that of the compound before are within 1.5-fold of each other.

With `CN(C)c1nc(Nc2ccc(F)cc2)nc(Oc2ccc(F)cc2)n1`, the solubility (kinetic) was < 0.1 µg/mL.

The compound `COc1ccc(CNC(C)Cc2cccs2)cc1` (stereo unspecified) returned a kinetic solubility of 30.4 µg/mL (≈ 116 µM).

With `Cc1cccc(C(=O)NC(=S)NC(C)c2ccccc2)c1` (stereo unspecified), the solubility (kinetic) was 1 µg/mL (≈ 3.35 µM). Against the preceding compound, the solubility kinetic is about 30-fold lower.

As to `c1ccc2cc(Cn3ccnc3)ccc2c1`, the solubility (kinetic) is 28.5 µg/mL (≈ 137 µM).

On to `Cc1ccc(NC(=O)CSc2ccc3c(c2)OCCO3)c(O)c1`, for which the solubility (kinetic) is 36.9 µg/mL (≈ 111 µM).

Compound `O=C(c1ccc(NS(=O)(=O)c2cccc(F)c2)cc1)N1CCCC1` had a solubility (kinetic) of 51.2 µg/mL (≈ 147 µM).
